In ChEMBL document CHEMBL5696441 (Nat Chem Biol, 2011):

How the values were obtained:
[1] = target: Rho-associated protein kinase 1 (Homo sapiens) (UniProt Q13464); experiment: Inhibition of ROCK1 (unknown origin) assessed as remaining activity at 1 uM by Kinome scan method relative to control
[2] = target: T1, Ephrin type-B receptor 4 (Homo sapiens) (UniProt P54760); experiment: Inhibition of human EPHB4 assessed as residual activity at 1 uM using polyEY as substrate in presence of 33P-ATP by ProQinase assay relative to control
T1 sequence (whole entry): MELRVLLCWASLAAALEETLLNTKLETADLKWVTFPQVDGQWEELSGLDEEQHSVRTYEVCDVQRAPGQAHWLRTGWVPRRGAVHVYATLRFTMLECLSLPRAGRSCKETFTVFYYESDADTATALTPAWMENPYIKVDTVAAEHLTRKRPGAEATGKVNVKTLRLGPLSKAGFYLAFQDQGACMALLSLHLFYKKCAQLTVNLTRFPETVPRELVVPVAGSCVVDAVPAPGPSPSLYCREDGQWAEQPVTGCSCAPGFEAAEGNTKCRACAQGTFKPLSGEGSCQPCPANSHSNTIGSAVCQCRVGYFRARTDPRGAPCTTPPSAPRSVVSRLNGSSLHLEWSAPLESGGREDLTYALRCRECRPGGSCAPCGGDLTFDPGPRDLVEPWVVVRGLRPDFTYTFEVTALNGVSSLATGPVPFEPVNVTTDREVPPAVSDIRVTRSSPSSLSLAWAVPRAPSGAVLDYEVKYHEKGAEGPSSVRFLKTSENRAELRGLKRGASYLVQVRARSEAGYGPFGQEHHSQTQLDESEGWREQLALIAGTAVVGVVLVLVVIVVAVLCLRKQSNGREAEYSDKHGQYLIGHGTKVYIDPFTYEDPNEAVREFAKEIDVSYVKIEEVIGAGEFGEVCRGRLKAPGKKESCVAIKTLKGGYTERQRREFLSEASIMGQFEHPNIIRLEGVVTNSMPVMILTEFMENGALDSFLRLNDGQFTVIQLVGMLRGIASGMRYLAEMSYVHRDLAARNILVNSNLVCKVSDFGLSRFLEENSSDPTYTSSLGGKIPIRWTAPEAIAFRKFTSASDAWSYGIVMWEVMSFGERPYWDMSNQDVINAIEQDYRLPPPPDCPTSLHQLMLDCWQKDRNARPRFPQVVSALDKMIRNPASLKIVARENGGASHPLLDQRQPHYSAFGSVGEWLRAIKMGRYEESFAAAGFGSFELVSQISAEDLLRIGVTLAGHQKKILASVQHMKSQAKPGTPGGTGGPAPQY

[3] = target: Calcium/calmodulin-dependent protein kinase kinase 1 (Homo sapiens) (UniProt Q8N5S9); experiment: Inhibition of CAMKK1 (unknown origin) assessed as remaining activity at 1 uM by Kinome scan method relative to control
[4] = target: Calcium/calmodulin-dependent protein kinase type II subunit gamma (Homo sapiens) (UniProt Q13555); experiment: Inhibition of CAMK2G (unknown origin) assessed as remaining activity at 1 uM by Kinome scan method relative to control
Chain of Calcium/calmodulin-dependent protein kinase type II subunit gamma (Homo sapiens) (Q13555 whole entry): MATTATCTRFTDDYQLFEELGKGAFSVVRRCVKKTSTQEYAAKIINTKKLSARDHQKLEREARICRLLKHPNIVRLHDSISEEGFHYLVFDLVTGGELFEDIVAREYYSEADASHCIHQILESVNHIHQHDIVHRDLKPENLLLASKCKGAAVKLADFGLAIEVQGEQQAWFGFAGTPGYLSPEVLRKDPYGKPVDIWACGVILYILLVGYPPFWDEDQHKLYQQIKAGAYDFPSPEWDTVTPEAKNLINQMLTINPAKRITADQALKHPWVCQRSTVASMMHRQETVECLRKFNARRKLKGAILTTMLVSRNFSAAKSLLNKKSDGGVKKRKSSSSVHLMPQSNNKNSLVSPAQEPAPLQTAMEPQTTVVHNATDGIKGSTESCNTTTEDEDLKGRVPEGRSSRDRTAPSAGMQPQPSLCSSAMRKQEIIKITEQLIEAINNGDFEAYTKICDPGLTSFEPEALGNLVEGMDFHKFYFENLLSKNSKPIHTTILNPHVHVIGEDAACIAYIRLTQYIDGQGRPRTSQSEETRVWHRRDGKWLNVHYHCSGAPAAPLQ

[5] = target: Serine/threonine-protein kinase 4 (Homo sapiens) (UniProt Q13043); experiment: Inhibition of MST1 (unknown origin) assessed as remaining activity at 1 uM by Kinome scan method relative to control
Chain of Serine/threonine-protein kinase 4 (Homo sapiens) (Q13043 whole entry): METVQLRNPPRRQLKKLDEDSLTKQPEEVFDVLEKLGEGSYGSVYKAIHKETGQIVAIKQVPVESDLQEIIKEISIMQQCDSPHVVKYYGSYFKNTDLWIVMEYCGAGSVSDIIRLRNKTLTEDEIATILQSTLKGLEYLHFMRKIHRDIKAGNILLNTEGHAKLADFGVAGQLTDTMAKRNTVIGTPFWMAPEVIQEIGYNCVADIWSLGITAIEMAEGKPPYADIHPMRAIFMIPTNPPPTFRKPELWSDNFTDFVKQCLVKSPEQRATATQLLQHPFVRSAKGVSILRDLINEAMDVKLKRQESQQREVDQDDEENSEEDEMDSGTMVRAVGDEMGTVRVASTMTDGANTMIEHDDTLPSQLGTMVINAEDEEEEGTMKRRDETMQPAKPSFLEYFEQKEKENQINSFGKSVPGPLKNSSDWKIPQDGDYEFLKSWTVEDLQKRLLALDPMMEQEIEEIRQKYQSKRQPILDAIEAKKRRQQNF

[6] = target: Serine/threonine-protein kinase tousled-like 1 (Homo sapiens) (UniProt Q9UKI8); experiment: Inhibition of TLK1 (unknown origin) assessed as remaining activity at 1 uM by Kinome scan method relative to control
Chain of Serine/threonine-protein kinase tousled-like 1 (Homo sapiens) (Q9UKI8 whole entry): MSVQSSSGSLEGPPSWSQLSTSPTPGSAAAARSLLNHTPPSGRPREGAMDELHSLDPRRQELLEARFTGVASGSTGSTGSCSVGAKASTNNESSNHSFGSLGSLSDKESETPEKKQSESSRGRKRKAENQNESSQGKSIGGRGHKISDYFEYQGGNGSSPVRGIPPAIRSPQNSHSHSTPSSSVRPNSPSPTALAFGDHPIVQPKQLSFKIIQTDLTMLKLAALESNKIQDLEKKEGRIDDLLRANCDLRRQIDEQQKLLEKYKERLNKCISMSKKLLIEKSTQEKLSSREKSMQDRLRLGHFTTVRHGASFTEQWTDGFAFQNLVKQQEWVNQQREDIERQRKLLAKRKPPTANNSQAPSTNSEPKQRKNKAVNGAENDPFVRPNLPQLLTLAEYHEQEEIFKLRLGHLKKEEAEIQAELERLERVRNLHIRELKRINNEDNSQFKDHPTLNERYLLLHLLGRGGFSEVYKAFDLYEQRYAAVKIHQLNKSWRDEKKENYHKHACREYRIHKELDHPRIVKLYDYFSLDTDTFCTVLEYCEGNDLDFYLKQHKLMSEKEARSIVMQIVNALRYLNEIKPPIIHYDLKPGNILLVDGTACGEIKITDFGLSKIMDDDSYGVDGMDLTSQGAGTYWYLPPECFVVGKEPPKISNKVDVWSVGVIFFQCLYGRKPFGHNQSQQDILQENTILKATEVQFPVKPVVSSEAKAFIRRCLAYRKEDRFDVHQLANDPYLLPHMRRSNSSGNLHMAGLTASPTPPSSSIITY

[7] = target: Serine/threonine-protein kinase Sgk1 (Homo sapiens) (UniProt O00141); experiment: Inhibition of human SGK1 assessed as residual activity at 1 uM using RBER-GSK3(14-27) as substrate in presence of 33P-ATP by ProQinase assay relative to control
[8] = target: T2, Phosphorylase b kinase gamma catalytic chain, liver/testis isoform (Homo sapiens) (UniProt P15735); experiment: Inhibition of human PHKG2 assessed as residual activity at 1 uM using RBER-CHKtide as substrate in presence of 33P-ATP by ProQinase assay relative to control
T2 sequence (whole entry): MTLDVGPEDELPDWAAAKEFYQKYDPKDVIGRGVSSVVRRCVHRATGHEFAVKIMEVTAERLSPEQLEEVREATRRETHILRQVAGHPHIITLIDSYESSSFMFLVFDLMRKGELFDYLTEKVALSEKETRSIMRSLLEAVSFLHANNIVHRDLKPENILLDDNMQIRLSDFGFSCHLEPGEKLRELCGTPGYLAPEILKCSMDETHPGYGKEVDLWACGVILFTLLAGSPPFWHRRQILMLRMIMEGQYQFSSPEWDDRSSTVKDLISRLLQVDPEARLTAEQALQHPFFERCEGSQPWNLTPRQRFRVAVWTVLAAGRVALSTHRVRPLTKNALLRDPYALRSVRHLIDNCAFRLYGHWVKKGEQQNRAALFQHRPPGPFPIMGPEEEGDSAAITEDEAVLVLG

[9] = Anti-inflammatory activity against human derived high respond PBMC cells assessed as inhibition in stimulated IL-6 cytokine release incubated for 2 hrs in the presence of LPS/SEB/aCD28 by Luminex based sandwich immunoassay; assay type: functional, cell-based
[10] = target: Platelet-derived growth factor receptor alpha (Homo sapiens) (UniProt P16234); experiment: Inhibition of PDGFRalpha (unknown origin) assessed as remaining activity at 1 uM by Kinome scan method relative to control
[11] = target: Dual specificity tyrosine-phosphorylation-regulated kinase 3 (Homo sapiens) (UniProt O43781); experiment: Inhibition of human DYRK3 assessed as residual activity at 1 uM using RBER-IRStide as substrate in presence of 33P-ATP by ProQinase assay relative to control
Chain of Dual specificity tyrosine-phosphorylation-regulated kinase 3 (Homo sapiens) (O43781 whole entry): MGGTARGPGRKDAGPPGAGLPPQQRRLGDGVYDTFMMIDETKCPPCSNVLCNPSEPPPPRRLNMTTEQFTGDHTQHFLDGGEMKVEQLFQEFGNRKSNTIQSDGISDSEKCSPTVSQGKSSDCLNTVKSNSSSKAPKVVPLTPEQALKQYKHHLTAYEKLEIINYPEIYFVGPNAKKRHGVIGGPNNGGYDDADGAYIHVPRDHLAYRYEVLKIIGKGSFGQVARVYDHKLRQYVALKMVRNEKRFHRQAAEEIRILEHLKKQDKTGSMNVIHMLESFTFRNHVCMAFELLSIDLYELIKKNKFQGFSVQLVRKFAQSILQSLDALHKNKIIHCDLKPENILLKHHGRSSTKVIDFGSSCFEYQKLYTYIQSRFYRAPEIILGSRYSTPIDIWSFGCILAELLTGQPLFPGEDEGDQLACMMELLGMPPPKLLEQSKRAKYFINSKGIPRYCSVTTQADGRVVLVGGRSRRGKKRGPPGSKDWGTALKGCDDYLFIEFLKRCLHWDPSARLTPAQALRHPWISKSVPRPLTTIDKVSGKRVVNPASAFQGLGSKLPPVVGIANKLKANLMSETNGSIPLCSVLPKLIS

[12] = target: Cyclin-Y/Cyclin-dependent kinase 16 (Homo sapiens) (UniProt Q00536+Q8ND76); experiment: Inhibition of human PCTAIRE1/CyclinY assessed as residual activity at 1 uM using RBER-GSK3 as substrate in presence of 33P-ATP by ProQinase assay relative to control; assay type: protein-complex assay
[13] = target: Platelet-derived growth factor receptor beta (Homo sapiens) (UniProt P09619); experiment: Inhibition of PDGFRbeta (unknown origin) assessed as remaining activity at 1 uM by Kinome scan method relative to control
Chain of Platelet-derived growth factor receptor beta (Homo sapiens) (P09619 whole entry): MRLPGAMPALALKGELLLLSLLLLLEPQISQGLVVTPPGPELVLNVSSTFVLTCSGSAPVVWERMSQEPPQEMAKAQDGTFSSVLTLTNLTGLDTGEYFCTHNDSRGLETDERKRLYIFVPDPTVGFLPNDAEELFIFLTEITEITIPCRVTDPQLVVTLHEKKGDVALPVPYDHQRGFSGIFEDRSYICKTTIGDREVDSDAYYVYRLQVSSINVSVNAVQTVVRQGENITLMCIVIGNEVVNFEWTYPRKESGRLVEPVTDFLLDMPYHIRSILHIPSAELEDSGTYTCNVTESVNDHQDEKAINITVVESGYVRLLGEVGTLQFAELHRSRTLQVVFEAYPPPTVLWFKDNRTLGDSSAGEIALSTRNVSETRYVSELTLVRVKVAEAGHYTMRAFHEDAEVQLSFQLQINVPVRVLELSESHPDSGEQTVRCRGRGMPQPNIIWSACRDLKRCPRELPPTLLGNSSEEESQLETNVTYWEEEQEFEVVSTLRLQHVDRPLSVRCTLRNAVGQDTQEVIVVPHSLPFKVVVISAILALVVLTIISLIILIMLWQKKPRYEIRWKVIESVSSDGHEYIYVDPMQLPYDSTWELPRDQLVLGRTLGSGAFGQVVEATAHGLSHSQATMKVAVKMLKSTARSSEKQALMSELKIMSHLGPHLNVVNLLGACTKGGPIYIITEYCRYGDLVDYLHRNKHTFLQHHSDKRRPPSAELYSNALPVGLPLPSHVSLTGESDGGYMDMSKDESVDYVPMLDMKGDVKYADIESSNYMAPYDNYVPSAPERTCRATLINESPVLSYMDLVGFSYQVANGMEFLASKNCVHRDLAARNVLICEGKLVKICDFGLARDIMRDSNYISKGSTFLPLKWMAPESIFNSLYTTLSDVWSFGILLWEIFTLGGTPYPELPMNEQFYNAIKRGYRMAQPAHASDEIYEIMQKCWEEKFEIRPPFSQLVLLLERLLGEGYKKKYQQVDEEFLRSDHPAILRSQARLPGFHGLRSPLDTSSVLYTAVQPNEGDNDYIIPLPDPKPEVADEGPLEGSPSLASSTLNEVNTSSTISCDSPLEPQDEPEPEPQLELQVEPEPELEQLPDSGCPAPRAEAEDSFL

Chain of Rho-associated protein kinase 1 (Homo sapiens) (Q13464 2-1354 limits assumed): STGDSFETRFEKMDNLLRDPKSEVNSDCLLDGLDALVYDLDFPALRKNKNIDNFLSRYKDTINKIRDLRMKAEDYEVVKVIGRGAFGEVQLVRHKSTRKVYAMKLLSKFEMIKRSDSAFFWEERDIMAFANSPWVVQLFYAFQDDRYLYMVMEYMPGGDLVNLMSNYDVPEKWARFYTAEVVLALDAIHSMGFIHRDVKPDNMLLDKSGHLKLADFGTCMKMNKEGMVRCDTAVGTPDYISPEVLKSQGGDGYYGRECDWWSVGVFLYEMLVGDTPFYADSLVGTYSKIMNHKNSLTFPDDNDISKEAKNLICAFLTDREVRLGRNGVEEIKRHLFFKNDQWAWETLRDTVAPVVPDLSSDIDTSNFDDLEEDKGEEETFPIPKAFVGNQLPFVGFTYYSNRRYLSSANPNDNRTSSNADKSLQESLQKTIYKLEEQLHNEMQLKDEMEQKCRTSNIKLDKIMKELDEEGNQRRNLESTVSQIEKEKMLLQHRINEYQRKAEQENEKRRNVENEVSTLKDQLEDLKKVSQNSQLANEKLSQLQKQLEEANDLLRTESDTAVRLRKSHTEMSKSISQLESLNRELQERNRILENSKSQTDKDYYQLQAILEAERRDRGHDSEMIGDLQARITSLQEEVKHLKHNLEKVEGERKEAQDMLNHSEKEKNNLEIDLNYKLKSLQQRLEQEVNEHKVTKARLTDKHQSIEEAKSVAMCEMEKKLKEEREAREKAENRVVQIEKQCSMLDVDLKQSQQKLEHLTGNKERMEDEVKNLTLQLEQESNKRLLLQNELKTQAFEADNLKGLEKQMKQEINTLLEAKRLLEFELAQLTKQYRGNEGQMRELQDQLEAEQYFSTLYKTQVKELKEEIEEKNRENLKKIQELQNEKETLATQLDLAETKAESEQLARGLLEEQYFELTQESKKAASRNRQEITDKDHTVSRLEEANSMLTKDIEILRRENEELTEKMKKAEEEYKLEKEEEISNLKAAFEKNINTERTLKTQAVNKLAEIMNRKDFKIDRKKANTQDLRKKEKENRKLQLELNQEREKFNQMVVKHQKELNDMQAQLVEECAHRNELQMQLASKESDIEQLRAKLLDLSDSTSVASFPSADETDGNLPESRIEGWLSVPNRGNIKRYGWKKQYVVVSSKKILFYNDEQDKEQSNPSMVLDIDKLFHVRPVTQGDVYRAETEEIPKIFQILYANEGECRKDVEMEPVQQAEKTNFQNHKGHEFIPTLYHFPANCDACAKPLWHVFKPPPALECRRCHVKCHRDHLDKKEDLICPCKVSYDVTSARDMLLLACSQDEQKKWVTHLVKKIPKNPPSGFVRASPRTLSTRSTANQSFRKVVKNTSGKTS

O=C1c2ccc(Nc3ccc(F)cc3F)cc2CCc2ccc(OC[C@H](O)CO)cc21 [Skepinone-L]
Activity [1]: 100% | Activity [2]: 128% | Activity [3]: 100% | Activity [4]: 100% | Activity [5]: 100% | Activity [6]: 100% | Activity [7]: 90% | Activity [8]: 73% | IC50 [9]: 650 nM | Activity [10]: 100% | Activity [11]: 98% | Activity [12]: 79% | Activity [13]: 87%
